Source: article PMC4621027, “Hydroxyethylamine Based Phthalimides as New Class of Plasmepsin Hits: Design, Synthesis and Antimalarial Evaluation” (PLoS ONE, 2015)
Like-named read-outs stand apart in the source and are kept apart here.

Tests used:
[1] = system: P. falciparum 3D7; assay: SYBR green I-based fluorescence parasite growth assay, CQ sensitive strain; format: cell-based, Plasmodium falciparum; conditions: read-out: IC50 values ± SE, growth of P. falciparum (3D7)
Description: (§1) For compound screening, SYBR green I-based fluorescence assay was setup as described in literature. Sorbitol synchronized parasites were incubated under normal culture conditions at 2% hematocrit and 1% parasitemia in the absence or presence of increasing concentrations of the compounds. Chloroquine (CQ) was used as positive control, while 0.4% DMSO was used as the negative control.
(§2) We have studied the antimalarial effect of all the listed molecules in […] culture conditions in order to identify a putative lead structure for pharmacological applications.

[2] = system: CQ resistant strain (7GB) of P. falciparum; assay: Antiplasmodial activity against CQ resistant strain; format: cell-based; conditions: Plasmodium falciparum
Description: as §1, §2

[3] = MTT-colorimetric cytotoxicity assay; format: cell-based; conditions: human, MCF-7 cells, read-out: IC50, cytotoxicity on MCF7 cell line
Description: (§3) Phthalimides were serially diluted in DMSO in a final concentration of 100, 25 and 6.25 μg mL^-1 and evaluated for their % cytotoxicity by using MTT-colorimetric assay on MCF-7 cell line. Cell lines were maintained in RPMI-1640 (Hi-Media, Mumbai) medium supplemented with heat inactivated FCS (10% v/v) and 100 U/mL of streptomycin and were cultured in a humidified 5% CO2 atmosphere at 37°C. 100 μL (~2×10^5) of cells were seeded into wells (per well) on a 96-well plate (Nunc, Maxi Sorp) and incubated for 16 h for adherence. After 16 h, media was aspirated from the wells and the cells were washed with RPMI-1640 without FCS. 75 μL of each compound and control was added to separate wells containing cell lines and incubated at 37°C in humidified 5% CO2 atmosphere for 4 h. After 4 h, media containing the compounds was replaced with 200 μL of normal RPMI-1640 and cells were further incubated for 48 h under same conditions. After 48 h media was replaced by 200 μL of MTT (3-(4, 5-dimethylthiazol-2-yl)-2, 5-diphenyltetrazolium bromide, 0.5 mg/mL of RPMI-1640) and further incubated for 2 h. The formazan crystals were formed and suspended in 100 μL iso-propanol containing 0.06 M HCl and 0.5% SDS. Aliquots were drawn from each well and colour intensity was measured spectrophotometrically in an ELISA plate reader (Biotek, ELx800) at 540 nm. Untreated cells were taken as control with 100% viability and cells without addition of MTT were used as blank. The relative cell viability (%) compared to control cells was calculated by [abs] sample/ [abs] control × 100.

[4] = target: T1, plasmepsin 2 (Plasmodium falciparum, UniProt P46925); assay: Inhibition of plasmepsin 2, chromogenic substrate cleavage assay; format: biochemical; conditions: pH 4.5; fit to competitive inhibition scheme
T1 construct: preincubated at the assay pH for 3 minutes to allow conversion from the proenzyme to the mature enzyme form; made in house
Description: (§4) Synthetic compounds were dissolved in DMSO to make stock solutions at concentrations around 100 μM. Dilutions from these stocks were made to obtain solutions to use for studying inhibition of the plasmepsins 2 and 4 from P. falciparum. Assays of enzymatic activity were typically done using 50 micromolar substrate and 50 nanomolar enzyme at pH 4.5. The protein samples were preincubated at the assay pH for 3 minutes to allow conversion from the proenzyme to the mature enzyme form, then immediately mixed with inhibitor solutions and incubated for a further 5 minutes to permit the enzyme-inhibitor complex to form. Following this, the samples were mixed with samples of the substrate to yield a 50 μM substrate concentration in the final assay solution and immediately placed in a recording spectrophotometer to follow the reaction. The cleavage of the chromogenic substrate yields a shift in absorbance that can be quantified by the decrease in absorbance at 300 nm. Compounds were mixed with the enzymes at concentrations ranging from 10 to 50 μM range and the effect on enzyme activity studied in duplicate assays.
(§5) A second inhibitor concentration was chosen that would yield approximately 30–35% inhibition and a third inhibitor concentration was chosen to yield approximately 65–70% inhibition. The three resulting curves of initial velocity versus substrate concentration were fit simultaneously to the competitive inhibition scheme; this yields values of Vmax, Km, and Ki.
(§6) Plasmepsins, a family of aspartic proteases of malaria parasite, are known to participate in a wide variety of cellular processes essential for parasite survival. […] Similarly, plasmepsin 4 from P. falciparum can be prepared and activated. Catalytic activity of the plasmepsins can be studied by following the change in absorbance at 300 nm as cleavage occur between a Phe and a nitroPhe in the synthetic substrate, Lys-Pro-Ile-Glu-Phe-NO2Phe-Arg-Leu. The compounds listed in Tables 1, 2 and 3 were assayed for inhibition by preincubating with differnt concentrations of the compound with equal aliquots of either plasmepsin 2 or 4 followed by mixing with the assay substrate.

[5] = target: T2, plasmepsin 4 (Plasmodium falciparum, UniProt Q8IM16); assay: Inhibition of plasmepsin 4, chromogenic substrate cleavage assay; format: biochemical; conditions: pH 4.5; fit to competitive inhibition scheme
T2 construct: preincubated at the assay pH for 3 minutes to allow conversion from the proenzyme to the mature enzyme form; made in house
Description: as §4, §5, §6

[6] = system: human erythrocytes; assay: In vitro hemolytic activity; format: cell-based; conditions: 3.125 to 100 μg/mL, 37°C, 1 h
Description: In vitro hemolytic activity of all synthesized compounds was performed as per reported protocol with slight modifications. In brief, human erythrocytes were collected from Rotary Blood Bank (New Delhi, India) and suspended in phosphate buffer saline (PBS). The suspension (2% hemotocrit) was incubated with different concentrations (3.125 to 100 μg/mL) of the entire compound series at 37°C for 1 h. After 1 h, erythrocytes were pelleted at 3000 g for 10 min (Remi, R-8C/BL) at 4°C. The supernatant was collected and OD450 was determined spectrophotometrically (Biotek, ELx800 UV spectrophotometer) using PBS as a negative control and Triton X-100 for completely lysing the cells. The percent hemolysis was calculated using the following formula: Percent hemolysis = […]. The percent hemolysis was plotted against concentration of compounds for determining the dose cytotoxic to erythrocytes.

[7] = system: MCF-7 cell line; assay: MTT-colorimetric cytotoxicity assay; format: cell-based; conditions: 100, 25 and 6.25 μg mL^-1
Description: as §3

[8] = Plasmodium falciparum, CQ sensitive strain 3D7, 48 h incubation
[9] = values in brackets, 48 h incubation, read-out: IC50 values ± SE, CQ resistant strain (7GB) (converted)

T2 sequence (Q8IM16 122-449): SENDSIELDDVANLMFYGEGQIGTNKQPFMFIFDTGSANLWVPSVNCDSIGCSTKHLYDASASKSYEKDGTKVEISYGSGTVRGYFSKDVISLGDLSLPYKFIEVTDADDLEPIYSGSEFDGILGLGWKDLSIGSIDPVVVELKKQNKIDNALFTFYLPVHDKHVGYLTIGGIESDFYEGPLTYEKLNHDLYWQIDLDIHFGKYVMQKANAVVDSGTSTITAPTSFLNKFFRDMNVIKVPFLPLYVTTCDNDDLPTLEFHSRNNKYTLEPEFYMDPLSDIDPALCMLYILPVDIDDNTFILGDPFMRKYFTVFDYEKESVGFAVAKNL
T1 sequence (P46925 125-453): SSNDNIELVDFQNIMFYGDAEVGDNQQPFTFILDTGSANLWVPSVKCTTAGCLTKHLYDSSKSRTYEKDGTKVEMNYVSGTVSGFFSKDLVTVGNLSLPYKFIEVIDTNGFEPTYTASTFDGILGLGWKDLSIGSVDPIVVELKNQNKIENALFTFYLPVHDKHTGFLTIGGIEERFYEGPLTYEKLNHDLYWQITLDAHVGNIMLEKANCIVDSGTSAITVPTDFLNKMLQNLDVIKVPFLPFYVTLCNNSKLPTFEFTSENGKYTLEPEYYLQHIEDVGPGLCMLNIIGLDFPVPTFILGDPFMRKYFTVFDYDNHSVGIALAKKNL

Compound	IC50 [1, 8] [µM]	melting point [°C]	other results
CCN(CC)CCCC(C)Nc1ccnc2cc(Cl)ccc12 (centres unmarked) [CQ, Chloroquine, reference compound]	–	–	IC50 ([1]; Plasmodium falciparum, 3D7, 48 h): 0.059 µM; IC50 ([2]; 48 h, read-out: IC50 values ± SE, CQ resistant strain (7GB)): 1.32 µM
CCC(C)[C@@H](C(=O)N[C@H](Cc1ccccc1)[C@@H](O)CN1CCN(C[C@H](O)[C@@H](Cc2ccccc2)NC(=O)[C@H](C(C)CC)N2C(=O)c3ccccc3C2=O)CC1)N1C(=O)c2ccccc2C1=O (some centres unmarked) [Compound 6u]	3.24 ± 0.06	131 to 134	Ki [4]: 0.99 ± 0.1 µM; Ki [5]: > 50 µM
C[C@@H]1CC[C@H]2[C@@H](C)C(=O)O[C@@H]3O[C@@]4(C)CC[C@@H]1[C@]32OO4 [ART, reference compound]	–	–	IC50 ([1]; CQ sensitive strain 3D7, 48 h incubation): 0.021 µM
CCN1CCN(C[C@H](O)[C@@H](Cc2ccccc2)NC(=O)OC(C)(C)C)CC1 [Compound 5b]	5.4 ± 0.06	89 to 91	hemolysis of human erythrocytes (in words) [6]: highest hemotoxicity
CC(C)(C)OC(=O)N[C@H](Cc1ccccc1)[C@@H](O)CN1CCN(Cc2ccc(F)cc2)CC1 [Compound 5c]	2.56 ± 0.06	108 to 110	IC50 at 4 h [3]: > 8 µM
CC(C)(C)OC(=O)N[C@H](Cc1ccccc1)[C@@H](O)CN1CCN(C[C@H](O)[C@@H](Cc2ccccc2)NC(=O)OC(C)(C)C)CC1 [Compound 5f]	3.11 ± 0.11	–	cytotoxic effect on MCF7 cell line (in words) [7]: maximal toxicity
CC(C)[C@@H](C(=O)N[C@H](Cc1ccccc1)[C@@H](O)CN1CCN(C)CC1)N1C(=O)c2ccccc2C1=O [Compound 6c]	4.58 ± 0.04	91 to 93	–
CC(C)(C)OC(=O)N[C@H](Cc1ccccc1)[C@@H](O)CN1CCN(Cc2ccc(Br)cc2)CC1 [Compound 5d]	4.9 ± 0.01	111 to 114	–
CC(C)C[C@@H](C(=O)N[C@H](Cc1ccccc1)[C@@H](O)CN1CCN(C)CC1)N1C(=O)c2ccccc2C1=O [Compound 6a]	4.61 ± 0.06	141 to 143	–
CC[C@@H](C)[C@@H](C(=O)N[C@H](Cc1ccccc1)[C@@H](O)CN1CCN(C)CC1)N1C(=O)c2ccccc2C1=O [Compound 6d]	6.33 ± 0.13	104 to 106	hemolysis of human erythrocytes (in words) [6]: lower hemolysis
CN1CCN(C[C@H](O)[C@@H](Cc2ccccc2)NC(=O)OC(C)(C)C)CC1 [Compound 5a]	5.88 ± 0.23	–	IC50 at 4 h [3]: > 8 µM; hemolysis of human erythrocytes (in words) [6]: least hemotoxic

More lines, main results first:

IC50 [1, 8] [µM]	melting point [°C]	Compound	other results
4.59 ± 0.07	137 to 139	CC(C)[C@@H](C(=O)N[C@H](Cc1ccccc1)[C@@H](O)CN1CCN(Cc2ccc(F)cc2)CC1)N1C(=O)c2ccccc2C1=O [Compound 6k]	IC50 at 4 h [3]: > 8 µM
3.14 ± 0.02	131 to 133	O=C(N[C@H](Cc1ccccc1)[C@@H](O)CN1CCN(Cc2ccc(Br)cc2)CC1)[C@H](Cc1ccccc1)N1C(=O)c2ccccc2C1=O [Compound 6n]	–
2.96 ± 0.43	108 to 111	CCN1CCN(C[C@H](O)[C@@H](Cc2ccccc2)NC(=O)[C@H](Cc2ccccc2)N2C(=O)c3ccccc3C2=O)CC1 [Compound 6f]	–
3.41 ± 0.03	101 to 103	CN1CCN(C[C@H](O)[C@@H](Cc2ccccc2)NC(=O)[C@H](Cc2ccccc2)N2C(=O)c3ccccc3C2=O)CC1 [Compound 6b]	–
8.54 ± 0.04	134 to 136	O=C(N[C@H](Cc1ccccc1)[C@@H](O)CN1CCC(N2CCCCC2)CC1)[C@H](Cc1ccccc1)N1C(=O)c2ccccc2C1=O [Compound 6q]	IC50 at 4 h [3]: > 8 µM
6.96 ± 0.1	143 to 145	CC(C)C[C@@H](C(=O)N[C@H](Cc1ccccc1)[C@@H](O)CN1CCN(Cc2ccc(Br)cc2)CC1)N1C(=O)c2ccccc2C1=O [Compound 6m]	IC50 at 4 h [3]: > 8 µM
7.28 ± 0.43	123 to 125	CC(C)[C@@H](C(=O)N[C@H](Cc1ccccc1)[C@@H](O)CN1CCN(C[C@H](O)[C@@H](Cc2ccccc2)NC(=O)[C@H](C(C)C)N2C(=O)c3ccccc3C2=O)CC1)N1C(=O)c2ccccc2C1=O [Compound 6t]	Ki [4]: > 20 µM; Ki [5]: 3.3 ± 0.3 µM
1.25 ± 0.08	–	CC(C)[C@@H](C(=O)N[C@H](Cc1ccccc1)[C@@H](O)CN1CCN(Cc2ccc(Br)cc2)CC1)N1C(=O)c2ccccc2C1=O [Compound 6o]	IC50 [2, 9]: 3.01 µM; cytotoxic effect on MCF7 cell line (in words) [7]: low cytotoxic effect
2.13 ± 0.02	117 to 119	CCN1CCN(C[C@H](O)[C@@H](Cc2ccccc2)NC(=O)[C@H](CC(C)C)N2C(=O)c3ccccc3C2=O)CC1 [Compound 6e]	–
5.12 ± 0.43	141 to 143	CC(C)C[C@@H](C(=O)N[C@H](Cc1ccccc1)[C@@H](O)CN1CCN(C[C@H](O)[C@@H](Cc2ccccc2)NC(=O)[C@H](CC(C)C)N2C(=O)c3ccccc3C2=O)CC1)N1C(=O)c2ccccc2C1=O [Compound 6r]	Ki [4]: 1.1 ± 0.1 µM; Ki [5]: > 50 µM; hemolysis of human erythrocytes (in words) [6]: least hemotoxic
5.27 ± 0.06	134 to 136	CC(C)C[C@@H](C(=O)N[C@H](Cc1ccccc1)[C@@H](O)CN1CCN(Cc2ccc(F)cc2)CC1)N1C(=O)c2ccccc2C1=O [Compound 6i]	–
3.8 ± 0.03	108 to 111	CCN1CCN(C[C@H](O)[C@@H](Cc2ccccc2)NC(=O)[C@H](C(C)C)N2C(=O)c3ccccc3C2=O)CC1 [Compound 6g]	–
1.33 ± 0.04	121 to 123	O=C(N[C@H](Cc1ccccc1)[C@@H](O)CN1CCN(Cc2ccc(F)cc2)CC1)[C@H](Cc1ccccc1)N1C(=O)c2ccccc2C1=O [Compound 6j]	IC50 [2, 9]: 3.6 µM; cytotoxic effect on MCF7 cell line (in words) [7]: low cytotoxic effect; hemolysis of human erythrocytes (in words) [6]: lower hemolysis
